In patent publication US11834640B2, “Device and uses thereof for treating diabetes” (Board of Regents, The University of Texas System, priority 2019, dated 2023):

Experiments:
Assay type in all cases: cell-based, mouse
βTC-6 cells [1] = experiment: Calcium spiking frequency (Fluo-8) after 810 nm PBM exposure, pharmacologic studies
Experimental: Cell Culture. […] Cell passage was performed weekly with 0.25% Trypsin-EDTA. Samples were prepared by seeding βTC-6 cells on glass coverslips in low glucose media. These samples were used for experimentation between days 2 through 5. All cells were incubated at 37° C. in a 5% CO2 environment.
PBM Parameters. A Cytonsys (Austin, TX) 810 nm near-infrared laser was used to perform all experimentation. […] Herein, all βTC-6 samples were exposed to 810 nm for 1 minute with an irradiance of 150 mW/cm^2, resulting in a fluence of 9 J/cm^2. To measure the bulk temperature rise that was due to laser exposure, an Omega HH42A thermistor was used before and after irradiation.
(§1) Live Cell Imaging. For calcium and mitochondrial superoxide (mROS) detection, the cells were stained with Fluo-8 (0.8 μM, Abcam, Cambridge, UK), Mitosox (5 μM, Thermo-Fisher, Waltham, MA) and 1 drop/mL of Nucblue (Thermo-Fisher, Waltham, MA) for detection of intracellular calcium, mROS, and nucleic acid, respectively. The fluorescent dye DAF-FM (5 μM, Thermo-Fisher) was used to detect and measure cytosolic nitric oxide (NO). Hanks balanced salt solution (HBSS) was used (H8264, Sigma, St. Louis, MO) unless stated otherwise. Samples were stained at 37° C. for 30 minutes before being washed and mounted onto the imaging chamber.
Calcium Activity Analysis. Regions of interest (ROIs) were placed on individual cells using the nucleic acid staining and transferred to perform and calculate mean fluorescent intensity over time with background subtraction. Approximately 100 to 200 cells were monitored for each data point, and the results were averaged. A conservative moving average threshold (10 data points) with a 10% cutoff was used to determine a calcium spike. […] The active population was defined by the total number of active cells divided by the number of cells analyzed. The average spiking frequency of these active cells was then determined at each time point. Measurements were taken using Nikon Elements software and data analysis was carried out using Microsoft Excel. […]

βTC-6 insulinoma cells = experiment: Intracellular calcium rise (Fluo-8) after electric field exposure, blocking experiment; conditions: verapamil 100 μM, incubated 30 minutes before 3 V/cm EF for 15 min, HBSS
Experimental: Calcium labeling and depletion. Samples were washed with HBSS (Sigma) and incubated with 0.8 μM Fluo-8 (Abcam) for 30 minutes. NucBlue solution (Thermo) was added for 15 min in accordance to the manufacturer's recommended concentration to stain the nuclei. Cells were washed again and mounted onto the chamber. Changes in the Fluo-8 fluorescent intensity were monitored and recorded. Fluorescent images were acquired for 2 min at 5 s intervals with a 250 ms exposure time before and after the DCEF was applied. Image analysis was performed using the Nikon Elements image processor by identifying a ROI selection on selected nuclei with mean intensity of Fluo-8 over time. […]
Calcium Fluorescent Microscopy. […] Measurements for calcium rise recorded a single static image before and after EF exposure, while calcium spiking was recorded over 2 minutes before and after EFS with a 5 second sampling interval.
Calcium Image Analysis. For calcium rise, the mean intensity of clusters in the sample were measured at 0 minute (Pre) and 15 minute (Post) time points using Nikon Elements. Background subtraction was then performed and the percent change was determined by comparing the post-exposure to the pre-exposure mean intensities. […] The mean intensity over time was measured for both the pre and post imaging sessions. […]

βTC-6 cells [2] = experiment: Mitochondrial superoxide (MitoSOX intensity) after 810 nm PBM exposure; conditions: ascorbic acid 2.5 mM, 9 J/cm^2
Experimental: PBM Parameters. A Cytonsys (Austin, TX) 810 nm near-infrared laser was used to perform all experimentation. […] The energy density of 9 J/cm^2 was previously shown to have therapeutic effects on hepatic tissue in a diabetic state. […] Herein, all βTC-6 samples were exposed to 810 nm for 1 minute with an irradiance of 150 mW/cm^2, resulting in a fluence of 9 J/cm^2. To measure the bulk temperature rise that was due to laser exposure, an Omega HH42A thermistor was used before and after irradiation.
as §1
Pharmacologic Studies. All drugs were added to the staining buffer. Samples were treated with each drug for 30 minutes before imaging. For L-type VGCC blocking, Verapamil (100 μM, V4629, Sigma) was applied. Capsazepine (10 μM, C191, Sigma) was added as a TRPV1 antagonist. […]

For O=C1CN(/N=C/c2ccc(-c3ccc([N+](=O)[O-])cc3)o2)C(O)=N1 [dantrolene, Dantrolene], the “calcium spiking frequency following PBM, versus control” value (βTC-6 cells [1]; dantrolene 50 μM, 30 minutes, 9 J/cm^2, difference only noticeable at the 15-minute mark) was “decreased in comparison to the control”.
For NCCOB(c1ccccc1)c1ccccc1 [2-APB], the “calcium spiking frequency following PBM” value (βTC-6 cells [1]; 2-APB 10 μM (FIG. 10B legend 20 μM), 30 minutes, 9 J/cm^2) was “significantly impede such an increase in the calcium spiking frequency by PBM”.
COc1ccc(CCN(C)CCCC(C#N)(c2ccc(OC)c(OC)c2)C(C)C)cc1OC (centres unmarked) [Verapamil] was tested, and the “increase in intracellular calcium level in response to EF” value (βTC-6 insulinoma cells) was “effectively blocked the increase in intracellular calcium level”.
O=C1O[C@H]([C@@H](O)CO)C(O)=C1O [ascorbic acid, Ascorbic Acid] was tested, and the “calcium spiking frequency of active cells following PBM, AA-treated versus control” value (βTC-6 cells [1]; ascorbic acid 2.5 mM, 9 J/cm^2) was “no significant difference in the calcium spiking frequency analysis between the AA-treated and control cells until the 10-minute time point” and the “MitoSOX intensity following PBM (superoxide)” value (βTC-6 cells [2]) was “significant reduction in the MitoSOX intensity”.
